In assay [1] the test system is helix. The following applies: aqueous solution, compared to the helices with thymidin; cited from earlier work.
The subject of assay [2] is helix. The assay can be described thus: Destabilization of a helix in which thymidin is replaced. The note with it: corresponding to the 16 kJ/mol destabilization. From the text:
The importance of a complete H-bond network in nucleotide recognition has been investigated. Molecular recognition usually involves several H-bonds. The influence of unsatisfied interfacial H-bond functions can be seen in the destabilization of a helix in which thymidin is replaced by difluortoluoldesoxynucleosid. The experiments have shown that these helices exist in aqueous solution but are destabilized by 16 kJ/mol compared to the helices with thymidin (Moran et al., J. Am. Chem. Soc. 1997, 119: 2056-2057). The authors conclude that the specificity of base pair recognition may not be due to H-bonding but to space filling since the modified base is incorporated into the double helix even though the H-bond cannot be made. […] This value agrees well with the mismatched pairing observed for the incorporation of nucleotides into DNA by polymerase enzymes (1 in 10^3-10^5) (Loeb and Kunkel, Annu. Rev. Biochem. 1982: 52, 429) and the preference of correct tRNA compared to near cognate tRNA in the codon:anticodon recognition (1 in 10^−3.5) (Thompson and Karim, Proc. Natl. Acad. Sc. U.S.A. 1982, 79: 4922-26).

Consider `Cc1cc([C@H]2C[C@H](O)[C@@H](CO)O2)c(F)cc1F` [difluortoluoldesoxynucleosid], for which the destabilization of helices in the assay with helix [1] was 3.82 kcal/mol. In addition, the reduced affinity in the assay on helix [2] was 1000-10000 times.

(Values after US8688387B2, “Method for the determination of intra- and intermolecular interactions in aqueous solution” (Bayer CropScience AG, priority 2006, dated 2014).)
